No end group written: not given here.
Target: T1, mu-opioid receptor (MOR) (Homo sapiens, UniProt P35372)
T1 construct: expressed in transfected cells; host or cells: CHO-K1
Assay: functional cellular cAMP assay on CHO-K1 cell lines expressing MOR, co-administration with orthosteric ligand
Assay type: cell-based
Conditions: for Allosteric activity level (%): 0% = reference agonist at EC20, 100% = maximum activity of reference agonist; for EC50: logEC50(M), log of molar EC50, CHO-K1 cells expressing MOR, cAMP
Description: The properties and functionality of these peptidosteroids were validated using standard experimental methods. To evaluate their allosteric modulation capabilities, functional cellular assays were conducted on CHO-K1 cell lines expressing MOR. These assays utilized fluorescent techniques to measure intracellular cAMP levels as a marker of receptor activity.
The peptidosteroids were tested in co-administration with orthosteric ligands, such as morphine and DAMGO, to assess their ability to influence receptor signaling.
The table below provides additional data on the binding motifs (Candidates 1 and 2) and the resulting peptidomimetics (Candidate 3), offering a detailed comparison of their activity. The percentage values are normalized such that 0% corresponds to the activity of the reference agonist at EC20, while 100% represents the maximum activity of the reference agonist.

T1 sequence (P35372 whole entry): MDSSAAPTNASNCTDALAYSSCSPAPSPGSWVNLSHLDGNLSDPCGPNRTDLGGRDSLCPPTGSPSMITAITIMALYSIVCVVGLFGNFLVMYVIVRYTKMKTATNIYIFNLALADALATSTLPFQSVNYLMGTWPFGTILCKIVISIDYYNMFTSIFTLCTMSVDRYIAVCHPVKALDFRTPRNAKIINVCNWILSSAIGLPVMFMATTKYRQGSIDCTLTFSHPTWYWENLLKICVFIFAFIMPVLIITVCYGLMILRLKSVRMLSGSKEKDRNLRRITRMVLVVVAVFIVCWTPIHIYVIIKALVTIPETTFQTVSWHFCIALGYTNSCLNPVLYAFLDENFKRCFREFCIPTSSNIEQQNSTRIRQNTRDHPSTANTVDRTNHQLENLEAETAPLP

With “VCAVGLWGNWLVM [sequence-1, VCAVGLWGNWLVM]” the “Allosteric activity level (%)” value (agonist present DAMGO) was 23.64%, the “Allosteric activity level (%)” value (agonist present morphine) was 21.67% and the EC50 (agonist present DAMGO (EC20)) was 4.57e-06 M. For the same substance, the EC50 (agonist present morphine) was 1e-06 M.
In the case of YPWFYL [sequence-4, YPWFYL], the “Allosteric activity level (%)” value (agonist present DAMGO) is reported as 24.64% and the EC50 (agonist present DAMGO (EC20)) is reported as 1.35e-06 M.
